In article PMC9207808 (ACS Chemical Biology, 2022):
Residues, ends and D or L forms follow the SMILES beside them.

Legend:
[1] = test system: DocSTm; test: Differential scanning fluorimetry (thermal stabilisation of Doc); assay type: binding, S. Typhimurium; details: for melting temperature shift ΔTm: DSF, DocSTm 5 μM, analyte 50 μM, Tm with analyte minus Tm of free DocSTm (42.9 ± 0.9 °C), SYPRO Orange, 20 mM K2HPO4, 50 mM (NH4)2SO4, pH 8.0, triplicate; for Average Tm / Tm: DocSTm 5 µM + 50 µM binder; for Average Tm: average of 3 replicates
Procedure: Experiments were performed in a Mx3005P qPCR System (Agilent) collecting fluorescence data with a temperature ramp of 25 to 95 °C. Samples were prepared in a buffer containing 20 mM K2HPO4 and 50 mM (NH4)2SO4 at pH 8.0. The SYPRO Orange dye (Sigma-Aldrich, 5000× stock in DMSO) was used to monitor protein denaturation and was diluted to a final concentration of 3×. For binding experiments, the final concentration of Doc was 5 μM. Each condition was performed in triplicate (ESI section 4) and the melting curves were plotted using GraphPad Prism 5 (GraphPad Software, U.S.A.). The melting temperatures were obtained by fitting the sigmoidal section of the curves to a Boltzmann sigmoid function.

[2] = target: DocSTm; test: Surface plasmon resonance binding to immobilised Doc; parameters: species or system S. Typhimurium; details: for koff × 10^-6 / kon × 10^6: 1:1 kinetic fit, mean ± SD of at least 3 replicates; for kon × 10^6: single-cycle kinetics (multicycle for PhdSTm1-73); for Half-life of the complex: t1/2 = ln2 / koff
Procedure: Experiments were performed in a Biacore S200 (Cytiva) with a Series S sensor chip NTA (Cytiva). The data was analyzed using the Biacore Evaluation Software (Cytiva) and curves were plotted using GraphPad Prism 5 (GraphPad Software, U.S.A.). All experiments were performed at 22 °C with a running buffer containing 10 mM HEPES, 500 mM NaCl, 50 μM EDTA, and 0.005% (v/v) TWEEN 20 at pH 8.0. The surface was conditioned following the standard manufacturer’s guidelines and protein immobilization was performed with a 30–60 s pulse (flow rate of 5 μL/min) of Doc (150 nM) in running buffer. […] Surface regeneration was performed with a 1 min pulse of 0.5 M imidazole followed by a 1 min pulse of 0.35 M of EDTA at pH 8.0.
Binding to Doc was performed using a multicycle kinetics (MCK) setup for peptides 7, 10, and 14, while the remaining samples were tested using a single-cycle kinetics (SCK) setup. The surface was fully regenerated in between each analyte in both cases. In the MCK experiments, increasing concentrations of each analyte were injected with an 80 s pulse (30 μL/min) and dissociation times varied depending on the time required to fully dissociate the complex. The double-referenced sensorgrams (raw data subtracted from a blank injection and reference surface responses) were analyzed using a kinetic and/or a steady-state 1:1 binding model. In the SCK experiments, typically six concentrations of each analyte were sequentially injected with 80 s pulses (30 μL/min), and dissociation times varied depending on the time required to dissociate at least 5% of the complex. The double-referenced sensorgrams were fitted using a kinetic 1:1 binding model.
At least three independent replicates were measured for each analyte (ESI section 5). When a steady-state fit was applied, the reported Kd and its uncertainty correspond, respectively, to the average and standard deviations of the Kd obtained in each measurement. When a kinetic fit was applied, the reported rate constants (kon and koff) and their uncertainties correspond, respectively, to the average and standard deviations of the rate constants obtained in each measurement. In this case, reported Kd were calculated using the equation below, and the standard deviation of the rate constants was propagated. [drawing 1]

[3] = SPR, kinetic fit, KD calculated from mean koff and kon, SD propagated, 22 °C, pH 8.0

Structure (SMILES) | melting temperature shift ΔTm [1] | Average Tm [1] | Tm ([1]; replicate 1) | Tm ([1]; replicate 2) | Tm ([1]; replicate 3) | Kd ([2]; SPR kinetic fit, replicate 1) | Kd ([2]; SPR kinetic fit, replicate 2) | Kd ([2]; SPR kinetic fit, replicate 3) | koff × 10^-6 ([2]; SPR, 22 °C, pH 8.0) | kon × 10^6 ([2]; SPR, 22 °C, pH 8.0) | Kd [2, 3] | Half-life of the complex [2]
CC[C@H](C)[C@H](NC(=O)[C@H](C)NC(=O)[C@H](C)NC(=O)[C@H](Cc1ccccc1)NC(=O)[C@H](CCC(=O)O)NC(=O)[C@H](CC(=O)O)NC(=O)[C@H](CC(=O)O)NC(=O)[C@H](CCSC)NC(=O)[C@H](Cc1c[nH]c2ccccc12)NC(C)=O)C(=O)N[C@@H](CCSC)C(=O)N[C@@H](C)C(=O)N[C@H](C(=O)N[C@@H](Cc1c[nH]cn1)C(=O)NCC(=O)N[C@@H](CC(N)=O)C(=O)N[C@@H](CCC(=O)O)C(=O)N[C@@H](CC(C)C)C(=O)N[C@@H](CCCNC(=N)N)C(=O)N[C@@H](C)C(=O)N[C@@H](CC(C)C)C(=O)N[C@@H](C)C(=O)N[C@@H](CC(=O)O)C(=O)N[C@@H](CCCCN)C(=O)O)C(C)C [peptide 16] (Ac-WMDDEFAAIMAVHGNELRALADK-OH; C-terminus assumed) | 30.7 ± 0.9 °C | 73.6 ± 0.2 °C | 73.5 °C | 73.5 °C | 73.9 °C | 0.0687 nM | 0.0703 nM | 0.0518 nM | 136 ± 41 ×10^-6 s-1 | 2.101 ± 0.333 ×10^6 M-1 s-1 | 0.065 ± 0.022 nM | 1.4 ± 0.4 h
CC[C@H](C)[C@H](NC(=O)[C@H](C)NC(=O)[C@H](C)NC(=O)[C@H](Cc1ccccc1)NC(=O)[C@H](CCC(=O)O)NC(=O)[C@H](CC(=O)O)NC(=O)[C@H](CC(=O)O)NC(=O)[C@H](CCSC)NC(=O)[C@H](Cc1c[nH]c2ccccc12)NC(C)=O)C(=O)N[C@@H](CCSC)C(=O)N[C@@H](C)C(=O)N[C@H](C(=O)N[C@@H](Cc1c[nH]cn1)C(=O)NCC(=O)N[C@@H](CC(N)=O)C(=O)N[C@@H](CCC(=O)O)C(=O)N[C@@H](CC(C)C)C(=O)N[C@@H](CCCNC(=N)N)C(=O)N[C@@H](CCC(=O)O)C(=O)N[C@@H](CC(C)C)C(=O)N[C@@H](C)C(=O)N[C@@H](C)C(=O)N[C@@H](CCCCN)C(=O)O)C(C)C [peptide 18] (Ac-WMDDEFAAIMAVHGNELRELAAK-OH; C-terminus assumed) | 28.0 ± 0.9 °C | 70.9 ± 0.3 °C | 71.1 °C | 71.0 °C | 70.6 °C | 0.0532 nM | 0.0189 nM | 0.0385 nM | 84 ± 33 ×10^-6 s-1 | 2.508 ± 0.964 ×10^6 M-1 s-1 | 0.033 ± 0.018 nM | 2.3 ± 0.9 h
